Data as given in paper PMC8416643 (International Journal for Parasitology: Drugs and Drug …, 2021).
pEC50: −log10 of the molar value. Where “and” joins values, the source holds several entries; their conditions need not be identical. Equal entries are not always repeated. Entries after “also recorded” stand apart in the source; their conditions may differ. Where two headings read alike, the source gives them in different places.

Tests used:
[1] = tested on: N. caninum transgenic strain expressing β-galactosidase; assay: In vitro proliferation of Nc-β-gal tachyzoites in HFF monolayers (β-galactosidase readout); format: cell-based, Neospora caninum; settings: compound added concomitantly to infection, 72 h
Protocol: In vitro efficacy assessments of ELQ-316, ELQ-334, ELQ-422, BKI-1748, and respective drug combinations were done using Nc-β-gal ([Barna et al., 2013]; [Schorer et al., 2012]). Briefly, HFF monolayers were cultured in 96-well plates and were infected with 10^3 Nc-β-gal tachyzoites in the presence of ELQ-316, ELQ-334, ELQ-422, and BKI-1748, as well as the combinations of BKI-1748 with each of the three ELQs. All drugs and combinations were prepared as serial dilutions of 20000, 2000, 200, 20, 2, 0.2, 0.02, 0.002 and 0.0002 nM in cell culture medium, respectively. The stock solutions of ELQs as well as the medium were heated up to 37 °C before use. After three days of culture (37 °C/5% CO2) in the presence of compounds, wells were washed with 200 μl PBS, and 90 μl of PBS containing 0.05% Triton X-100 were added into each well. After addition of 10 μl 5 mM chlorophenol red-β-D-galactopyranoside dissolved in PBS, the absorption shift was measured at a wavelength of 570 nm at various time points on an Enspire multilabel reader (Perkin Elmer, Waltham). The half-maximal effective concentrations (EC50 values) were calculated after the logit-log transformation of relative growth and subsequent regression analysis by use of the corresponding software tool contained in the Excel software package (Microsoft, Seattle, WA).

[2] = design: method as in Doggett et al., 2020; settings: ref Doggett et al., 2020; cited from earlier work
[3] = tested on: BALB/c mice; assay: Assessment of potential interference in pregnancy in non-infected BALB/c mice; format: in vivo; settings: ELQs 10 mg/kg, BKI-1748 20 mg/kg; for Fertility: corn oil, gavage, days 9–13 of pregnancy, pregnant/total females
Protocol: Thirty-six BALB/c female and 18 male mice, six weeks of age were used. […] After mating, males were removed and female mice were randomly allocated to six experimental groups (six mice per group, two females per cage). […] The placebo group received 100 μl corn oil for five consecutive days. […] During the experimental period, mice were examined daily and weighed several times during pregnancy to determine the number of pregnant animals and to detect possible abortions (which would result in rapid weight loss). On day 18 post-mating, pregnant females were separated into individual cages, where they gave birth on days 20–22 post mating. Live and stillborn pups were counted, and dead pups removed. Data on the number of female mice that became pregnant, litter size (number of delivered pups per dam), stillborn mice (dead pups from birth until day two post-partum), post-natal mortality (dead pups from day three post-partum to the end of the experiment), and clinical signs of treated mice were recorded. Dams and live pups were monitored for two weeks after birth to rule out possible adverse effects due to treatments. At the end of the experiment, mice were euthanized in a euthanasia chamber using isoflurane and CO2.

[4] = BKI-1748 and ELQ-316 concentration in BALB/c mouse plasma (LC-MS/MS); format: in vivo; settings: 1 h after final of 5 daily oral doses, ELQs 10 mg/kg, BKI-1748 20 mg/kg
Protocol: Thirty-six BALB/c female and 18 male mice, six weeks of age were used. Female mice were oestrus synchronized during three days by the Whitten effect ([Whitten, 1957]), and mated for three nights by housing one male with two females. After mating, males were removed and female mice were randomly allocated to six experimental groups (six mice per group, two females per cage). […] The placebo group received 100 μl corn oil for five consecutive days. […] Live and stillborn pups were counted, and dead pups removed. Data on the number of female mice that became pregnant, litter size (number of delivered pups per dam), stillborn mice (dead pups from birth until day two post-partum), post-natal mortality (dead pups from day three post-partum to the end of the experiment), and clinical signs of treated mice were recorded. Dams and live pups were monitored for two weeks after birth to rule out possible adverse effects due to treatments. […]
BKI-1748 and ELQ-316 concentrations in mouse plasma samples were determined as previously described ([Hulverson et al., 2019]; [Imhof et al., 2021]). Briefly, BKI-1748 and ELQ-316 were extracted from plasma using acetonitrile/0.1% formic acid with an internal standard and a standard curve was prepared for quantification. […]

[5] = tested on: N. caninum NcSp-7 tachyzoites; settings: BKI-1748 20 mg/kg
Protocol: Ninety BALB/c female mice and 45 male mice, six weeks of age were used in this experiment. Oestrus synchronization and mating was performed as described above. After mating, (day 0) female mice were randomly assigned to seven groups: ELQ-334 (n = 14), ELQ-422 (n = 14), BKI-1748 (n = 14), ELQ-334 + BKI-1748 (n = 14), ELQ-422 + BKI-1748 (n = 14), positive control (corn oil treatment and infection, n = 14), and negative control (corn oil treatment without infection, n = 6). NcSp-7 tachyzoites were transferred from HFF cells to BALB/c dermal fibroblasts and maintained at 37 °C and 5% CO2 three days prior to infection ([Imhof et al., 2021]). On day 7, tachyzoites were harvested and prepared for infection as previously described ([Arranz-Solís et al., 2015]). In brief, tachyzoite-infected fibroblasts were recovered from culture flasks when they were >90% of intracellular tachyzoites still located in parasitophorous vacuoles, and infected cells were repeatedly passed through a 25-gauge needle at 4 °C. […] A sublethal dose of 10^5 tachyzoites in 100 μl were administered to each mouse by subcutaneous injection. The negative control group was inoculated with 100 μl dermal fibroblasts. From two days post-infection (day 9), compounds were administered in 100 μl corn oil on days nine to 13 of pregnancy, calculated after the first day of mating, as follows: ELQ-334 was administered at 5 mg/kg, ELQ-422 at 7.5 mg/kg, and BKI-1748 was administered at 20 mg/kg. The combined treatment groups were: ELQ-334 at 5 mg/kg + BKI-1748 at 20 mg/kg, and ELQ-422 at 7.5 mg/kg + BKI-1748 at 20 mg/kg. The positive and negative controls received 100 μl corn oil for five consecutive days. On day 18, pregnant females were separated into individual cages, they gave birth on days 20–22, and were allowed to rear their pups for 28 days until day 48–50. Live and stillborn pups were counted, and dead pups were removed, and the non-pregnant mice were also monitored during the following 30 days until day 50. Dams and their offspring were evaluated for clinical signs of disease, and data on the number of dams, stillborn pups and those dying postnatally were monitored. All mice were euthanized four weeks post-partum as described above. Blood was collected by cardiac puncture, centrifuged, and serum was stored at −20 °C for subsequent analysis of IgG1 and IgG2a levels by ELISA. Brain was collected and stored at −20 °C prior to further processing.
For the quantification of the brain parasite load in all the mice, a real-time PCR method designed for quantification of N. caninum DNA was employed ([Aguado-Martínez et al., 2019]; [Müller et al., 2002]). DNA extraction and purification were done with the NucleoSpin DNA RapidLyse Kit (Macherey-Nagel, Oensingen, Switzerland) employing the standard protocols. DNA concentrations in all samples were determined using the QuantiFluor double-stranded DNA (dsDNA) system (Promega, Madison, WI, USA) according to the manufacturer's instructions and adjusted to 5 ng/μl with sterile DNase-free water. Quantitative real-time PCR was performed using the Light Cycler (Roche, Basel, Switzerland), and parasite loads calculated with a standard curve of N. caninum DNA samples of 10, 100, and 1000 tachyzoites included in each run.
Levels of IgG1 and IgG2a in N. caninum infected mice were assessed by ELISA as described previously ([Debache et al, 2008], [2009]). Briefly, 96-well plates were coated with 200 ng NcSp-7 soluble tachyzoite protein extract diluted in coating buffer (50 mM sodium bicarbonate; 50 mM sodium carbonate both dissolved in ultrapure water; pH 9.6) per well.

[6] = tested on: N. caninum NcSp-7 tachyzoites; design: method as in Anghel et al., 2018; settings: ref Anghel et al., 2018, cited from earlier work
[7] = tested on: T. gondii; design: method as in Doggett et al., 2020; Martynowicz et al., 2020; settings: persistently T. gondii infected mice, ref Doggett et al., 2020, Martynowicz et al.; cited from earlier work
[8] = tested on: BALB/c mice; settings: non-infected pregnant BALB/c, five times 10 mg/kg/day, pups from four dams; ref Anghel et al., 2018; cited from earlier work

| SMILES | pEC50 [1] | Solubility [2] | Fertility [3] | Fertility ([3]; listed as ELQ-344) | Neonatal mortality ([3]; gavage days 9–13, pups born dead or died within 2 days post-partum) | Postnatal mortality ([3]; gavage days 9–13, pups that died during days 3–14 post-partum) | Pups per dam ([3]; gavage days 9–13 of pregnancy) | Plasma concentration ELQ-316 ([4]; non-pregnant mouse) | Plasma concentration ELQ-316 ([4]; pregnant mouse) | Pups: Litter size ([5]; infected dams, ELQ-334 5 mg/kg, ELQ-422 7.5 mg/kg, days 9–13) | Pups: N. caninum PCR positive ([5]; infected dams, ELQ-334 5 mg/kg, ELQ-422 7.5 mg/kg, brains from surviving pups) | Vertical transmission of N. caninum to the pups ([5]; infected dams, ELQ-334 5 mg/kg, ELQ-422 7.5 mg/kg, positive control 100%) | Inhibition of vertical transmission / pup infection ([5]; infected dams, ELQ-334 5 mg/kg/day) | Non-pregnant females: Clinical signs ([5]; infected, ELQ-334 5 mg/kg, ELQ-422 7.5 mg/kg, days 9–13) | Dams: Total no. ([5]; infected, ELQ-334 5 mg/kg, ELQ-422 7.5 mg/kg, days 9–13, pregnant/total females) | Reduction of vertical transmission ([6]; 10 mg/kg/day) | Cerebral parasite burden in non-pregnant mice compared to the placebo group ([6]; 10 mg/kg) | Neonatal mortality ([6]; N. caninum infected pregnant mice, 10 mg/kg/day, pups from 10 dams) | Tissue cysts in the brain [7] | Neonatal mortality [8] |
| --- | --- | --- | --- | --- | --- | --- | --- | --- | --- | --- | --- | --- | --- | --- | --- | --- | --- | --- | --- | --- |
| COc1cc2[nH]c(C)c(-c3ccc(Oc4ccc(OC(F)(F)F)cc4)cc3)c(=O)c2cc1F [ELQ-316] | 8.81 | low solubility; also recorded: poor solubility | – | – | – | – | – | – | – | – | – | – | – | – | – | – | – | – | – | – |
| CCOC(=O)Oc1c(-c2ccc(Oc3ccc(OC(F)(F)F)cc3)cc2)c(C)nc2cc(OC)c(F)cc12 [ELQ-334] | 7.27 | – | 2/6 | Two of six | two out of 11 and 2/11 | 1/9 | 11/2 | 11.16 µM and 15.81 µM and 13.24 µM | 12.71 µM and 18.58 µM | 33 | 2/29 | 10.3% | > 90% | 0/8 | 6/14 | 50% | not notably reduced | seven out of 44 | dramatic reduction of tissue cyst in the brain | one out of 27 |
